Consider 7 compounds from patent US8168567B2, “Thiadiazolyl oxyphenyl amidines and the use thereof as a fungicide” (Bayer Cropscience AG, priority 2007, dated 2012).

The nature of the first data set: logP determination (acidic, pH 2.3). Format: physicochemical. Conditions: acidic, read-out: logP (acidic).
`Cc1cc(Oc2nc(C(C)(C)C)ns2)c(C)cc1N=CN(C)C(C)C` [A-2, N′-{4-[(3-(tert-butyl)-1,2,4-thiadiazol-5-yl)oxy]-2,5-dimethylphenyl}-N-isopropyl-N-methylimidoformamide]: the logP amounted to 2.15. Same read-out and setting: the result for `Cc1cc(Oc2nc(C(C)(C)C)ns2)c(C)cc1/N=C/N1CCCCC1` [A-3, 4-[(3-(tert-butyl)-1,2,4-thiadiazol-5-yl)oxy]-2,5-dimethyl-N-[(1E)-piperidin-1-ylmethylene]aniline] reads 2.22. Take `CCN(C)C=Nc1cc(Cl)c(Oc2nc(C(C)(C)C)ns2)cc1C` [A-8, N′-{4-[(3-(tert-butyl)-1,2,4-thiadiazol-5-yl)oxy]-5-chloro-2-methylphenyl}-N-ethyl-N-methylimidoformamide]: the logP was 2.11.

For `Cc1cc(Oc2nc(C(C)(C)C)ns2)c(Cl)cc1/N=C/N1CCCCC1` [A-9, 4-[(3-(tert-butyl)-1,2,4-thiadiazol-5-yl)oxy]-5-chloro-2-methyl-N-[(1E)-piperidin-1-ylmethylene]aniline], the logP was 2.36.

Still in this data set, the particulars now being: read-out: log P (pH 2.3).
As for `CC(C)(C)c1nsc(Cl)n1` [3-(tert-Butyl)-5-chloro-1,2,4-thiadiazole], the logP came out at 3.44. As for `Cc1cc(Oc2nc(C(C)(C)C)ns2)c(C)cc1N` [4-[(3-(tert-Butyl)-1,2,4-thiadiazol-5-yl)oxy]-2,5-dimethylaniline], the logP worked out at 3.29. On the same count and under the same terms, for `CCN(C)/C=N/c1cc(C)c(Oc2nc(C(C)(C)C)ns2)cc1C` [A-1, N′-{4-[(3-(tert-butyl)-1,2,4-thiadiazol-5-yl)oxy]-2,5-dimethylphenyl}-N-ethyl-N-methylimidoformamide] the value was 2.02.
